Consider 5 molecules from US10646521B2, “Microbiota composition, as a marker of responsiveness to chemotherapy, and use of microbial modulators (pre-, pro- or synbiotics) for improving the efficacy of a cancer treatment” (INSTITUT GUSTAVE ROUSSY, priority 2013, dated 2020).

Data set [1] has as its system splenic pTh17 cells. The data set is described as follows: Flow cytometry of splenic pTh17 / TH1 / Tc1 cells. As to conditions: for CTX-mediated pTH17 in the spleen: WT animals treated with NOD agonists. (In general: In flow cytometry, cells or beads pass a laser one at a time.)
Method: For cross-linking experiment, 2×10^5 total splenocytes per well (after red cell lysis) were incubated in MaxiSorp plates (Nunc) precoated with anti-CD3ε mAb (145-2C11) (0.5 μg per well; eBioscience) and/or anti-CD28 mAb (37.51) (2 μg/ml; BD). The supernatants were assayed at 48 h by ELISA for mouse IL-17A (eBioscience) and IFNγ (BD). […] For intracellular, cells were incubated for 4 h at 37° C. with 50 ng/ml of PMA, 1 μg/ml of ionomycin and BD Golgi STOP™. After membrane staining, cells were stained with anti-IL-17A, IFNγ, T-bet and RORγt using eBioscience FoxP3/Transcription factor staining buffer set.
Data set [2] has as its system lipocalin-2. The data set can be described thus: ELISA monitoring of lipocalin-2 in feces. The class given is in vivo, mice. Conditions: WT animals treated with NOD agonists. The procedure:
A. Enumeration of bacterial colonies in splenocytes 48 hrs post-CTX therapy in various mouse backgrounds. Splenic cells (left panel) and mesenteric LN (middle panel) harvested from C57BL/6 WT or NOD1^−/−×NOD2^−/− mice were cultured in anaerobic conditions for 48 hours. Bacterial outgrowth was enumerated (number of colonies/plate and frequencies of positive plates/animal (right panel)) and eventually characterized by mass spectrometry for bacterial identification. B. Flow cytometric analyses of pTH17 cells. CD4^+ T cells co-expressing IFN[…]γ in the gate of live IL-17+ T splenocytes in WT versus NOD1 or NOD2 deficient mice C. Idem as in B. but experiment performed in WT animals treated with NOD agonists (MDP and TriDAP) according to the experimental setting aligned in the upper part of the graph. D. ELISA monitoring of lipocalin-2 in the feces of mice according to the experimental setting aligned in C. A representative experiment is shown for A and D. Concatenated data from 2-3 individual experiments including 3 mice/group are depicted in B-C. Anova statistical analyses: *p<0.05, **p<0.01, ***p<0.001.

Data set [3] has as its system MCA205 sarcomas. The data set is classed as in vivo, C57BL/6 mice.
Data set [4] deals with small intestine epithelium. Conditions: mouse, in vivo. As to the method: The whole small intestine (duodenum, jejunum and ileum) was removed, cleaned from fecal content and fixed in 4% of PFA for 1 h. Re-hydration of the tissue was performed in 15% sucrose for 1 h and in 30% sucrose overnight. Depending on the experiment, the small intestine was entirely rolled, or cut into small pieces, then embedded in optimum cutting temperature (OCT) compound (Sakura), snap frozen and longitudinal or transversal […] were prepared.
For histological analyses, the longitudinal sections were counterstained with hematoxilin and eosin. For the histological quantitative analyses, inflammatory foci, altered villi and the thickness of lamina propria were scored for each section, while the number of goblet cells was counted for each villus. […] Then, a rabbit polyclonal antibody against the lysozyme protein (1:500 for 1 h, Thermo Scientific) and ALEXA FLUOR 488 Fragment of goat anti-rabbit IgG (1:300 for 1 h, Molecular Probes) were used. All steps were performed at room temperature. Lysozyme-positive areas were quantified on mosaic images using the Histolab software (Microvision Instruments). The quantification of Paneth cells was performed measuring the average area of the Lysozyme-positive clusters (group of Paneth cells) as well as the emission/μm^2 of those clusters (not shown).

Data set [5] concerns splenocytes. The data set can be described thus: TCR cross-linking of splenocytes, IL-17 and IFNγ ELISA. The data set is classed as in vivo, mice. In general terms: An ELISA detects its analyte on a solid surface through an enzyme-linked reagent.
The subject of data set [6] is commensal bacteria. The class given is in vivo, mice. As to conditions: 48 h after treatment. As to the method:
Mesenteric lymph nodes and spleens were aseptically removed, smashed in PBS and plated onto COS agar plates (BioMérieux), for aerobic and anaerobic growth. After 48 h of culture, single colonies were isolated and stocked in glycerol at −80° C.
(§1) Serial dilutions of feces from naïve mice or tumor bearers treated with NaCl or CTX, vancomycin or broad spectrum antibiotics (ATB) (ampicillin+streptomycin+colistin), were plated onto COS agar plates and after 48 h, single colonies were isolated and Gram staining was performed. The identification of specific bacteria was accomplished through the combination of morphological tests and the analysis through VITEK® automated system (BioMérieux, France) and verified in mass spectrometry (MALDI-TOF, see below) performed at Pasteur Institute, Paris, France.

The test system of data set [7] is lung adenocarcinoma. The data set can be described thus: Lung adenocarcinoma-bearing KP mice treated with chemotherapy.
Method: Mice were either left untreated or received chemotherapy (d84, d91 and d98) in absence or presence of 0.25 mg/ml vancomycin (mixed into drinking water starting on d77 and until the end of the experiment; antibiotic-containing water was replaced biweekly). Tumor volumes were quantified on d73 and 100 (equivalent of ‘pre’ and ‘post’ chemotherapy) in anesthetized mice by noninvasive imaging as described before (Cortez-Retamozo et al., 2013).
In data set [8] the test system is tumor-infiltrating lymphocytes. The data set can be described thus: Flow cytometry of tumor-infiltrating lymphocytes. The data set is classed as in vivo, mice.
The test system of data set [9] is fecal commensal bacteria. The data set can be described thus: Culture of fecal commensals under antibiotics. The data set is classed as in vivo, mice. Conditions: antibiotic in drinking water, tumor bearers. The procedure: Mice were treated with antibiotics 2-3 weeks before tumor implantation and continued until the end of the experiment. A mix of ampicillin (1 mg/ml)+streptomycin (5 mg/ml)+colistin (1 mg/ml) (Sigma-Aldrich) or vancomycin (0.25 mg/ml) or colistin alone (2·10^3 U/ml) were added in sterile drinking water. Solutions and bottles were changed 2-3 times a week.
as §1

Data set [10] concerns MC38-OVAdim tumor cells. The data set is described as follows: OVA vaccine + CTX, rechallenge with MC38-OVAdim tumor cells. The data set is classed as in vivo, C56BL/6 mice. As to conditions: antibiotics 20 days, rechallenge at day 50. The procedure: FIG. 38: Anticancer vaccines combined with CTX promote a long lasting anticancer immunity which depends on gut Gram negative bacteria. A. Experimental setting. C56BL/6 mice were treated with broad spectrum ATB (ampicilline, colistine, streptomycine) or vancomycine (which only kills Gram+ bacteria) or colistine (which only kills Gram− bacteria) for 9 days, received one ip, injection of CTX (100 mg/kg), followed 3 days later by vaccination with OVA protein in CpG adjuvants (or mock vaccines). ATB were stopped after 20 days and animals were left untreated under observation for 1 month. At day 50, all mice were rechallenged with a lethal dose of 10× times the MTD of MC38-OVA^dim tumor cells sc. B. Animals were scored on the basis of tumor outgrowth (featuring no or weak memory T cell response). The percentages of tumor-free mice was recorded for 2 experiments comprising 5 mice/group.*Anova test: p<0.05.

“Also recorded” adds a separate entry of the source. Counter-ions that a name gives are not always drawn.

Consider `CC(=O)N[C@H]1C(O)O[C@H](CO)[C@@H](O)[C@@H]1O[C@H](C)C(=O)N[C@@H](C)C(=O)N[C@H](CCC(=O)O)C(N)=O` (mixture of isomers) [myramyl dipeptide], for which the “CTX-mediated pTH17 in the spleen” value in [1] is given as “reducing”. Moreover, the “release of the antimicrobial peptide lipocalin-2 in stools” value in [2] was “promoting the release”.

Turning to `C[C@H](N)C(=O)N[C@H](CCC(=O)NC(CCCC(N)C(=O)O)C(=O)O)C(=O)O` (some centres unmarked) [TriDAP], the “CTX-mediated pTH17 in the spleen” value in data set [1] is given as “reducing”. Further, in data set [2], the “release of the antimicrobial peptide lipocalin-2 in stools” value is listed as “promoting the release”.

As to `COc1cccc2c1C(=O)c1c(O)c3c(c(O)c1C2=O)C[C@@](O)(C(=O)CO)C[C@@H]3O[C@H]1C[C@H](N)[C@H](O)[C@H](C)O1` [doxorubicin, Doxorubicin hydrochloride], the “dependence of tumor growth reduction on gut commensals” value in data set [3] (SPF, ATB-treated and germ-free mice) was “does not require gut commensals for reducing tumor growth”. Further, the “inflammatory status of the gut epithelial barrier (histology)” value in [4] was “shortening of small intestinal villi, discontinuities of the epithelial barrier, interstitial edema and focal accumulation of mononuclear cells in the lamina propria”. Also, in [1] (Doxo i.p., splenocytes 7 days later), the “induction of pTh17 cells in the spleen” value is reported as “failed to induce pTh17 cells in the spleen”. Also, the “polarization of splenic CD4+ T cells towards Th1 and Th17 pattern” value in data set [5] (day 7 after treatment) was “not found”. In data set [6], the “translocation of commensal bacteria into mesenteric lymph nodes and spleens, compared with CTX” value is on record as “less so”.

On to `CN[C@H](CC(C)C)C(=O)N[C@H]1C(=O)N[C@@H](CC(N)=O)C(=O)N[C@H]2C(=O)N[C@H]3C(=O)N[C@H](C(=O)N[C@H](C(=O)O)c4cc(O)cc(O)c4-c4cc3ccc4O)[C@H](O)c3ccc(c(Cl)c3)Oc3cc2cc(c3O[C@@H]2O[C@H](CO)[C@@H](O)[C@H](O)[C@H]2O[C@H]2C[C@](C)(N)[C@H](O)[C@H](C)O2)Oc2ccc(cc2Cl)[C@H]1O` [vancomycin], for which, in data set [3] (3 week conditioning with antibiotic), the “effect on the anti-tumor efficacy of CTX against MCA205 sarcoma” value is recorded as “compromised; also recorded: reduced”. Further, in data set [1] (MCA205 tumor bearers, 7 days after CTX), the “effect on CTX-induced accumulation/differentiation of pTh17 in the spleen” value is “prevented; also recorded: blunts”. Also, the “intratumoral CD8+ T effector/Foxp3+ regulatory T cell ratio” value in [7] (Chemo+Vanco) was “reduced”. Also, the “effect on the anticancer efficacy of CTX-based chemotherapy” value in data set [7] (vancomycin 0.25 mg/ml in drinking water, oxaliplatin plus CTX) is “inhibitory role; also recorded: compromised”. Further, the “frequencies of tumor-infiltrating CD3+ T cells and Th1 cells” value in data set [8] (MCA205 tumors, 8 days post-CTX) was “reduced”. Besides, the “γδT17 cells in tumor beds post-therapy” value in [8] (chemotherapy-treated tumors) is listed as “devoid”. For the same molecule, in [5] (antibiotic in drinking water), the “effect on CTX-induced Th17 conversion” value is on record as “reduced”. Moreover, the “repertoire of commensal bacteria in feces” value in data set [9] is listed as “biased the repertoire of commensal bacteria towards distinct commensal species”. The “effect on long term protection of an OVA-based cancer vaccine + CTX against lethal challenge” value in [10] is “did not prevent”.

With colistin, the “repertoire of commensal bacteria in feces” value in [9] is recorded as “promoted the outgrowth of E. faecalis”. In addition, in data set [10], the “effect on long term protection of an OVA-based cancer vaccine + CTX against lethal challenge” value is reported as “did”.
